Measurements taken from patent publication US20230125429A1 (priority 2017, published 2023).
pIC50: −log10 of the molar value. Several values for one entry are separate records, joined by “and”; a condition that tells them apart may be missing. Identical values can stand only once.

Key:
Experiment in all cases: Growth inhibitory effect, one hour exposure (IncuCyte Zoom)
Format in all cases: cell-based, human
CAKI-1 = conditions: CAKI-1, Renal
Procedure: (§1) Cancer cell lines and immortalized human cell lines were cultured in 1640 tissue culture medium (Corning, USA) with 10% fetal bovine serum in a standard tissue culture condition of 37° C. and 5% CO2.
(§2) For primary hepatocytes, the seeded cells were monitored for up to 48 hours either without any treatment (as a control) or with various types of treatments. For primary keratinocytes, cells in 48-well plates were monitored either without any treatment or with various types of treatment for up to 96 hours. For HepG2, cells 96-well plates were monitored either without any treatment or with various types of treatments for up to 48 hours. The IncuCyte Zoom was set to take a set of images at fixed locations (4 per well for 96-well plates and 16 per well for 48-well plates and 12-well plates) every three hours.
(§3) The one-hour exposure is intended to simulate the transient high concentrations within the liver as the results of either the first pass effects of some orally administered drugs, or of locally delivered drugs, anticipating that such a short term exposure is nevertheless sufficient to affect certain cell surface receptors without causing any significant off-target effects due to intracellular absorption. Such a strategy would also reduce false hits due to reversible cell cycle arrests.
(§4) To address this possibility, we investigated whether other cell lines, including other HCC cell lines, cell lines from other type of cancers, as well as non-cancer immortalized/transformed cell lines, were also sensitive to Triptonide. Specifically, a total of 51 human cancer cell lines, representing 10 types of human cancers (6 non-small cell lung cancer cell lines, 5 colon cancer cell lines, 5 central nerve system cancer cell lines, 8 Melanomas cell lines, 4 ovarian cancer cell lines, 4 renal cancer cell lines, 2 prostate cancer cell lines, 3 breast cancer cell lines, 7 hepatocellular carcinoma cell lines, and 4 gastric cancer cell lines) were analyzed.

SNU-449 = conditions: SNU-449, Hepatocellular carcinoma
Procedure: as §1, §2, §3, §4

SK-MEL-2 = conditions: SK-MEL-2, Melanoma
Procedure: as §1, §2, §3, §4

ACHN = conditions: Renal
Procedure: as §1, §2, §3, §4

SN12C = conditions: Renal
Procedure: as §1, §2, §3, §4

HCT-15 = conditions: HCT-15, Colon
Procedure: as §1, §2, §3, §4

NCI-H522 = conditions: NCI-H522, Non-Small Cell Lung
Procedure: as §1, §2, §3, §4

LOX IMV1 = conditions: LOX IMV1, Melanoma
Procedure: as §1, §2, §3, §4

M14 = conditions: M14, Melanoma
Procedure: as §1, §2, §3, §4

A498 = conditions: A498, Renal
Procedure: as §1, §2, §3, §4

T-47D = conditions: Breast
Procedure: as §1, §2, §3, §4

IGR-OV1 = conditions: IGR-OV1, Ovarian
Procedure: as §1, §2, §3, §4

OVCAR-3 = conditions: OVCAR-3, Ovarian
Procedure: as §1, §2, §3, §4

LM9 = conditions: LM9, Hepatocellular carcinoma
Procedure: as §1, §2, §3, §4

SK-MEL-28 = conditions: SK-MEL-28, Melanoma
Procedure: as §1, §2, §3, §4

HCT-116 = conditions: HCT-116, Colon
Procedure: as §1, §2, §3, §4

NCI/ADR-RES = conditions: Ovarian
Procedure: as §1, §2, §3, §4

SGC7901 = conditions: SGC7901, Gastric cancer
Procedure: as §1, §2, §3, §4

SK-OV-3 = conditions: SK-OV-3, Ovarian
Procedure: as §1, §2, §3, §4

NCI-H23 = conditions: NCI-H23, Non-Small Cell Lung
Procedure: as §1, §2, §3, §4

HT29 = conditions: HT29, Colon
Procedure: as §1, §2, §3, §4

UACC-257 = conditions: UACC-257, Melanoma
Procedure: as §1, §2, §3, §4

Hep3B = conditions: Hepatocellular carcinoma
Procedure: as §1, §2, §3, §4

PC-3 = conditions: PC-3, Prostate
Procedure: as §1, §2, §3, §4

SF-268 = conditions: SF-268, CNS
Procedure: as §1, §2, §3, §4

Huh7 = conditions: Huh7, Hepatocelular carcinoma
Procedure: as §1, §2, §3, §4

HOP-62 = conditions: HOP-62, Non-Small Cell Lung
Procedure: as §1, §2, §3, §4

AGS = conditions: Gastric cancer
Procedure: as §1, §2, §3, §4

MDA-MB-435 = conditions: MDA-MB-435, Melanoma
Procedure: as §1, §2, §3, §4

SF-295 = conditions: SF-295, CNS
Procedure: as §1, §2, §3, §4

SNU-387 = conditions: SNU-387, Hepatocellular carcinoma
Procedure: as §1, §2, §3, §4

OVCAR-4 = conditions: OVCAR-4, Ovarian
Procedure: as §1, §2, §3, §4

NCI-H226 = conditions: NCI-H226, Non-Small Cell Lung
Procedure: as §1, §2, §3, §4

OVCAR-5 = conditions: OVCAR-5, Ovarian
Procedure: as §1, §2, §3, §4

CC(C)[C@]12O[C@H]1[C@@H]1O[C@@]13[C@@]1(C)CCC4=C(COC4=O)[C@@H]1C[C@@H]1O[C@@]13C2=O [Triptonide]
pIC50 (CAKI-1): 5.21 | pIC50 (SNU-449): 5.31 | pIC50 (SK-MEL-2): 6.22 | pIC50 (ACHN): 4.82 | pIC50 (SN12C): 5.97 | pIC50 (HCT-15): 5.93 | pIC50 (NCI-H522): 4.64 | pIC50 (LOX IMV1): 5.75 | pIC50 (M14): 5.31 | pIC50 (A498): 5.36 | pIC50 (T-47D): 5.74 | pIC50 (IGR-OV1): 5.33 | pIC50 (OVCAR-3): 5.31 | pIC50 (LM9): 5.37 | pIC50 (SK-MEL-28): 4.75 | pIC50 (HCT-116): 5.59 | pIC50 (NCI/ADR-RES): 5.08 | pIC50 (SGC7901): 4.92 | pIC50 (SK-OV-3): 5.41 | pIC50 (NCI-H23): 6.39 and 6.38 | pIC50 (HT29): 5.77 | pIC50 (UACC-257): 4.80 | pIC50 (Hep3B): 5.89 | pIC50 (PC-3): 5.17 | pIC50 (SF-268): 4.93 | pIC50 (Huh7): 5.76 | pIC50 (HOP-62): 5.03 | pIC50 (AGS): 5.39 | pIC50 (MDA-MB-435): 5.72 | pIC50 (SF-295): 4.84 | pIC50 (SNU-387): 5.17 | pIC50 (OVCAR-4): 5.81 | pIC50 (NCI-H226): 4.95 | pIC50 (OVCAR-5): 5.08
